Laboratory results: patent US12599676B2, “Cytotoxic imidazo[1,2-A]pyridine compounds and their use in therapy” (MyricX Pharma Limited, priority 2022, dated 2026)

Experiments:
[1] = system: LYXFDLBC4113 (patient-derived xenograft lymphoma); assay: Cell cytotoxicity CellTiter-Glo, LYXFDLBC4113; assay type: cell-based
Description: (§1) Cells were seeded in 96-well microplates and treated with compounds or cisplatin (as a positive control) at 9 increasing concentrations in technical triplicate. […] On day 1, 90 μL of various cell suspensions with the number of cells ranging from 5000-8000 cells/well were seeded into wells of a 96-well plate (Corning). The number of cells to be seeded was previously determined. • 2. All 96-wells plates with cells were placed in an incubator overnight at 37° C. with 5% CO2. • 3. On day 2, cells were observed under a microscope ensuring the cells treated with vehicle control were in good condition. • 4. A dilution series of the test compounds and cisplatin were prepared at 10× the final concentrations required. 10 μL/well of 10× compound solution was added to the corresponding plates. The final volume was 100 μL/well for all the plates. Final DMSO concentration was 0.1%. • 5. On day 5 (after 72 hours of incubation), 50 μL of CTG reagent was added to each well. • 6. Contents were mixed for 5 minutes on an orbital shaker to facilitate cell lysis. • 7. The plate was allowed to incubate at room temperature for 10 minutes to stabilize luminescent signals.
(§2) The effects of Comparator Compound 1 and certain Example compounds on the viability of various cell lines (LYXFDLBC2835, LYXFDLBC4009 and LYXFDLBC411 (patient-derived xenograft lymphoma), HT1080 (human fibrosarcoma), CA46 (human B cell lymphoma), RKO (human colon carcinoma), NCI-H1703 (human lung squamous cell carcinoma), MX-1 (human breast carcinoma), DU4475 (human breast carcinoma), LU2511 (human lung large cell undifferentiated carcinoma), LU0884 (human lung squamous cell carcinoma)), Panc-1 (human pancreatic carcinoma), MCF-7 (human breast cancer), SW480 (human colon adenocarcinoma) and HCC1806 (human breast ductal carcinoma) were performed using the standard CellTiter-Glo assay (CTG, Promega) as described in Biological Example 2. Compounds which show efficacy in these assays are expected to be useful as agents for treating or preventing hyperproliferative disorders such as cancer.

[2] = system: LYXFDLBC2835 (patient-derived xenograft lymphoma); assay: Cell cytotoxicity CellTiter-Glo, LYXFDLBC2835; assay type: cell-based
Description: as §1, §2

[3] = system: DOHH-2 tumor cells; assay: Subcutaneous xenograft DOHH-2 lymphoma model; assay type: in vivo, CB17/SCID mice; settings: oral dosing 12.5 or 25 mg/kg once a day for 9 days
Description: The in vivo efficacy of certain Example compounds was assessed in a subcutaneous xenograft DOHH-2 Lymphoma Model using 10 female 6-8 week old CB17/SCID Mice. Each mouse was inoculated subcutaneously at the right front region with DOHH-2 tumor cells (5×10^6) in 0.1 ml of PBS mixed with matrigel (1:1 PBS:matrigel) for tumor development. The test compound administration started once the mean tumor size reached approximately 100-150 mm^3.
Compounds were administered either IP (vehicle 10 mM sodium phosphate+0.2% Tween-80 (pH7.4) or orally (vehicle 15 Na2HPO4 buffer (10 mM) (pH 4.5)+0.2% tween 80). Tumor volumes were measured in two dimensions using a caliper, and the volume expressed in mm^3 using the formula: V=(L×W×W)/2, where V is tumor volume, L is tumor length (the longest tumor dimension) and W is tumor width (the longest tumor dimension perpendicular to L).
Mice were dosed with Example 21 orally (12.5 or 25 mg/kg) once a day for 9 consecutive days (FIG. 3). Example 5 was dosed intraperitoneally (7 or 20 mg/kg) in a cycle consisting of administration QD for three days followed by a three day no-dosing period followed by QD dosing for a further three days (FIG. 4). Example 12 was dosed intraperitoneally (0.7 or 2 mg/kg) in a cycle consisting of administration QD for three days followed by a three day no-dosing period followed by QD dosing for a further three days (FIG. 5). In a separate study Example 12 was dosed at […] in a cycle consisting of administration QD for two days followed by either four or six day no-dosing period, and this cycle was repeated three times (FIG. 6).

[4] = system: LYXFDLBC4009 (patient-derived xenograft lymphoma); assay: Cell cytotoxicity CellTiter-Glo, LYXFDLBC4009; assay type: cell-based
Description: as §1, §2

[5] = system: SU-DHL-10 cell line (human B cell lymphoma); assay: Cell cytotoxicity in SU-DHL-10 cell line (CellTiter-Glo); assay type: cell-based; settings: Homo sapiens, SU-DHL10, 72 h, 72 h treatment, CTG
Description: Certain Example compounds of the invention and Comparator Compound 1 were tested in the SU-DHL-10 cell line (human B cell lymphoma). Compounds which show efficacy in this assay are expected to be useful as agents for treating or preventing hyperproliferative disorders such as cancer.
as §1
Luminescence was recorded using an EnVision Multi Label Reader. Data analysis was performed using GraphPad Prism 8.0.
To calculate IC50, a concentration-response curve was generated using a nonlinear regression model with a sigmoidal concentration response. The formula for calculating the % of viable cells was shown below, and the IC50s are automatically generated by GraphPad Prism 8.0.
(LumTest article=luminescence in test article treated well; LumNone treated=luminescence in vehicle treated well; LumMedium control=luminescence in a well containing only medium and no cells; LumNone treated-LumMedium control was set as 100%)

[6] = system: VcaP tumour cells; assay: VCaP prostate cancer xenograft model; assay type: in vivo, CB17/SCID mice
Excerpt: All mice received two doses of test agent, on Study Day 1 and Study Day 8. The study was terminated on Study Day 30.

[7] = system: LNCaP tumour cells; assay: LNCaP prostate cancer xenograft model; assay type: in vivo, NOD SCID mice; settings: for Day 28 tumour volume (mm^3, mean ± SEM) / Tumour growth inhibition (TGI, %): IV, Q7D (×3); for Tumour growth inhibition (TGI, %): day 28
Description: A total of 84 male NOD SCID mice aged 5-8 weeks and weighing 25-30 g were used for the study.

With `CNCc1cnc2ccc(-c3ccc(F)c(F)c3OCCc3c(C(C)(C)O)nn(C)c3C)cn12` [Example 21, 2-(4-(2-(2,3-difluoro-6-(3-((methylamino)methyl)imidazo[1,2-a]pyridin-6-yl)phenoxy)ethyl)-1,5-dimethyl-1H-pyrazol-3-yl)propan-2-ol] the IC50 [1] was 23 nM, the IC50 [2] was 54 nM and the “tumour volume compared to vehicle” value [3] was “significant reduction in tumour volume or reduced growth in tumour volume”. The IC50 [4] was 35 nM and the IC50 [5] was 0.4 nM.

With ifinatamab the “ΔTGI (Study Day 17)” value ([6]; 2.5 mg/kg IV QW × 2 weeks) was 8.47%, the “ΔTGI (Study Day 17)” value ([6]; 5 mg/kg IV QW × 2 weeks) was 12.44% and the “tumour volumes compared to vehicle alone (Group 1)” value ([6]; all concentrations tested (ADC Example 4: 2.5, 5, 10 mg/kg; unconjugated ifinatamab: 5 and 2.5 mg/kg)) was “no significant difference”. For the same molecule, the “LNCaP tumour volume compared to the vehicle control” value ([7]; 5 mg/kg) was “no significant effect”, the “Day 28 tumour volume (mm^3, mean ± SEM)” value ([7]; 5 mg/kg) was 551.4 ± 73.1 mm^3 and the “Tumour growth inhibition (TGI, %)” value ([7]; 5 mg/kg) was 30.6%. The “LNCaP tumour volume compared to the vehicle control” value ([7]; 10 mg/kg) was “no significant effect”, the “Day 28 tumour volume (mm^3, mean ± SEM)” value ([7]; 10 mg/kg) was 666.56 ± 103.2 mm^3 and the “Tumour growth inhibition (TGI, %)” value ([7]; 10 mg/kg) was 13.0%.

B1: ifinatamab-DXd: ifinatamab-deruxtecan, comparator ADC in prostate xenograft models (conjugate, chains of the INN, looked up)
VH: QVQLVQSGAEVKKPGSSVKVSCKASGYTFTNYVMHWVRQAPGQGLEWMGYINPYNDDVKYNEKFKGRVTITADESTSTAYMELSSLRSEDTAVYYCARWGYYGSPLYYFDYWGQGTLVTVSS
VL: EIVLTQSPATLSLSPGERATLSCRASSRLIYMHWYQQKPGQAPRPLIYATSNLASGIPARFSGSGSGTDFTLTISSLEPEDFAVYYCQQWNSNPPTFGQGTKVEIK
modifications: deruxtecan payload
notes: ifinatamab-deruxtecan, comparator ADC in prostate xenograft models
B1 was tested, and the “tumour volume compared to Groups 2, 3 and 4” value ([6]; 2.5 mg/kg (Group 5)) was “no significant difference”, the “tumour volume compared to vehicle alone (Group 1)” value ([6]; 2.5 mg/kg (Group 5)) was “no significant difference” and the “ΔTGI (Study Day 17)” value ([6]; 2.5 mg/kg IV QW × 2 weeks) was 5.24%. The “tumour volume compared to unconjugated ifinatamab 5 mg/kg and 2.5 mg/kg” value ([6]; 5 mg/kg (Group 4)) was “significantly higher tumour volume”, the “tumour volume compared to vehicle alone (Group 1)” value ([6]; 5 mg/kg (Group 4)) was “significantly higher tumour volume” and the “ΔTGI (Study Day 17)” value ([6]; 5 mg/kg IV QW × 2 weeks) was 2.86%. The “LNCaP tumour volume compared to the vehicle control” value ([7]; 5 mg/kg) was “slowed the growth of LNCaP tumours to a lesser extent”, the “Day 28 tumour volume (mm^3, mean ± SEM)” value ([7]; 5 mg/kg) was 364.6 ± 51.7 mm^3 and the “Tumour growth inhibition (TGI, %)” value ([7]; 5 mg/kg) was 58.8%. The “LNCaP tumour volume compared to the vehicle control” value ([7]; 10 mg/kg) was “significantly reduced the mean volume”, the “Day 28 tumour volume (mm^3, mean ± SEM)” value ([7]; 10 mg/kg) was 259.5 ± 50.3 mm^3 and the “Tumour growth inhibition (TGI, %)” value ([7]; 10 mg/kg) was 75.0%.
